Here are results for 66 compounds from ChEMBL document CHEMBL1128564, “Inhibition of monoamine oxidase-B by 5H-indeno[1,2-c]pyridazines: biological activities, quantitative structure-activity relationships (QSARs) and 3D-QSARs” (J Med Chem, 1995).

The IC50 is the midpoint of a concentration-inhibition curve. Lower therefore signals greater potency in that assay.

Assay [1] concerns the target T1, Amine oxidase [flavin-containing] A (Rattus norvegicus, UniProt P21396).
T1 sequence (P21396 whole entry): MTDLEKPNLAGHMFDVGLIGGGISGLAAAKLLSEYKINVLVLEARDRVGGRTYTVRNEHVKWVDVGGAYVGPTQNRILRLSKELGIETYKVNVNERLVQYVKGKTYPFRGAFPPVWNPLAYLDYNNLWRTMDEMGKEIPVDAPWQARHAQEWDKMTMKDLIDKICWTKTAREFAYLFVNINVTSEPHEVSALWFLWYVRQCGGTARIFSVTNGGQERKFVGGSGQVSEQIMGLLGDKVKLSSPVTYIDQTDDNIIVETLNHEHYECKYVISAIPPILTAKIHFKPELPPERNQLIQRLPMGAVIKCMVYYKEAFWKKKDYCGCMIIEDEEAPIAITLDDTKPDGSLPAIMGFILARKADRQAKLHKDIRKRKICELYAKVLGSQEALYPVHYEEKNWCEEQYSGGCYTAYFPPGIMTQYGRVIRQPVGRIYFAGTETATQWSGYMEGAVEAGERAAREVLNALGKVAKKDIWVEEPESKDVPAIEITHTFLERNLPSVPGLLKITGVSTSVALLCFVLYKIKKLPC
Briefly: Ability to inhibit Monoamine oxidase A enzyme.

The target of assay [2] is T2, Amine oxidase [flavin-containing] B (Rattus norvegicus, UniProt P19643).
T2 sequence (P19643 whole entry): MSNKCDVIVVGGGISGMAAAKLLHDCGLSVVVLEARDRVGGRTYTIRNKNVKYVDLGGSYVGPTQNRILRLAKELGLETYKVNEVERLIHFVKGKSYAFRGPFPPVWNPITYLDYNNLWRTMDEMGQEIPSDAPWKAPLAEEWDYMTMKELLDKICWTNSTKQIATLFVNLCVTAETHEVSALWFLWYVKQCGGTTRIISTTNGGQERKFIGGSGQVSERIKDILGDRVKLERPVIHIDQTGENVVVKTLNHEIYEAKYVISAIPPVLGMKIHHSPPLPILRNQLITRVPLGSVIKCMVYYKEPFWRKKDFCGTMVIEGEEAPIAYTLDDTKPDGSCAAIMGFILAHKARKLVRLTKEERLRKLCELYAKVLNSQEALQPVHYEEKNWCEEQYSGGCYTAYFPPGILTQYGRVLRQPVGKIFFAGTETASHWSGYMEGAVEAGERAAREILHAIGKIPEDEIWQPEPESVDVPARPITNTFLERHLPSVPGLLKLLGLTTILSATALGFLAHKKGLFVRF
As to the kind of experiment: Ability to inhibit Monoamine oxidase B enzyme.

SMILES strings stand for the structures.

Turning to `COc1ccccc1-c1cc2c(nn1)-c1ccccc1C2=O`, the IC50 is 50 µM in assay [1] and above 50 µM in assay [2].

On to `O=C(c1ccccc1)c1c(-c2ccccc2)nnc2c1C(=O)c1ccccc1-2`, for which the concentration for half-maximal inhibition (IC50) in assay [1] was found to be 10 µM; in assay [2], 7.7 µM.

`O=C1c2ccccc2-c2nnc(-c3ccccc3)cc21`: it took 25 µM to reach half-maximal inhibition in assay [1] (IC50).

Turning to `O=C(O)CCc1cc2c(nn1)-c1ccccc1C2=O`, the IC50 in assay [1] and in assay [2] was 100 µM each time.

For the compound `O=C1c2ccccc2-c2nnc(/C=C/c3ccccc3)cc21`, the 50% inhibitory concentration (IC50) in assay [1] was above 1 µM.

Regarding `Cc1nnc2c(c1Cc1ccccc1)C(=O)c1ccccc1-2`, the IC50 in assay [1] was 100 µM; in assay [2], 83.5 µM.

Consider `O=C(c1ccccc1)c1cc2c(nn1)-c1ccccc1C2=O`, for which the half-maximal inhibitory concentration (IC50) in assay [1] was above 50 µM; in assay [2], 16.1 µM.

With `Nc1ccc(-c2cc3c(nn2)-c2ccccc2C3=O)cc1`, the IC50 stood at 36.8 µM in assay [1] and 24.7 µM in assay [2].

`O=C1c2ccccc2-c2nnc(-c3cccc(F)c3)cc21` came in with a concentration for half-maximal inhibition (IC50) in assay [1] of 10 µM.

With `O=C1c2ccccc2-c2nnc(-c3ccccc3C(F)(F)F)cc21`, the half-maximal inhibitory concentration (IC50) in assay [1] and in assay [2] was 10 µM throughout.

In assay [1], `COc1ccc(-c2cc3c(nn2)-c2ccccc2C3=O)cc1` displayed an IC50 of 10 µM.

The compound `COc1ccc2c(c1)C(=O)c1cc(-c3cccc(C(F)(F)F)c3)nnc1-2` displayed an IC50 in assay [1] of 5 µM.

Regarding `O=C1c2ccccc2-c2nnc(-c3ccccc3Cl)cc21`, the half-inhibitory concentration (IC50) in assay [1] is above 50 µM.

In assay [1], `O=C1c2ccccc2-c2nnc(-c3ccc(F)c(F)c3)cc21` registered a 50% inhibitory concentration (IC50) of 1 µM.

In assay [1], `COc1cccc(-c2cc3c(nn2)-c2ccccc2C3=O)c1` had an IC50 of 50 µM.

`Cc1ccccc1-c1cc2c(nn1)-c1ccccc1C2=O` returned a half-maximal inhibitory concentration (IC50) in assay [1] of 10 µM.

With `O=C1c2ccccc2-c2nnc(-c3ccc(N4CCCCC4)cc3)cc21`, the IC50 in assay [1] and in assay [2] was 1 µM in each case.

On to `O=C1c2ccccc2-c2nnc(-c3cccs3)cc21`, for which the IC50 in assay [1] and in assay [2] was 1 µM in each case.

As to `O=C1c2ccccc2-c2nnc(-c3ccc([N+](=O)[O-])cc3)cc21`, the IC50 in assay [1] amounted to 25 µM.

On to `O=C1c2ccccc2-c2nnc(-c3ccc(Br)cc3)cc21`, for which half-maximal inhibition in assay [1] (IC50) was put at 1 µM.

For the compound `O=C1c2ccccc2-c2nncc(Cc3ccccc3)c21`, the IC50 in assay [1] and in assay [2] was 50 µM in each case.

For the compound `O=C1c2ccccc2-c2nnc3c(c21)CCCC3`, the figures for the IC50 in assay [1] and in assay [2] were 50.5 µM and 100 µM, respectively.

In assay [1], `O=C1c2ccccc2-c2nnc(-c3ccccc3)c(Cc3ccccc3)c21` gave an IC50 above 10 µM.

Consider `O=C1c2ccccc2-c2nncc(-c3ccccc3)c21`, for which the IC50 came to 34.3 µM in assay [1] and 93.7 µM in assay [2].

`CCCCOc1ccc(-c2cc3c(nn2)-c2ccccc2C3=O)cc1`: the half-maximal inhibitory concentration (IC50) in assay [1] and in assay [2] was 10 µM each time.

The compound `O=C1c2ccccc2-c2nnc(-c3cccc(Cl)c3)cc21` gave an IC50 in assay [1] above 5 µM.

Compound `Cc1cc2c(nn1)-c1ccccc1C2=O` came in with an IC50 in assay [1] above 100 µM.

For `O=C1c2ccccc2-c2nnc3ccc4ccccc4c3c21`, the IC50 in assay [1] and in assay [2] was 10 µM throughout.

Regarding `O=C1c2ccccc2-c2nnc3ccccc3c21`, the IC50 in assay [1] and in assay [2] was 1 µM each time.

With `c1ccc(-c2cc3c(nn2)-c2ccccc2C3)cc1`, half-maximal inhibition in assay [2] (IC50) required 23.4 µM. This counts as double-digit micromolar.

As to `CCOC(=O)c1c(-c2ccccc2)nnc2c1C(=O)c1ccccc1-2`, the IC50 in assay [1] is above 50 µM; in assay [2] it was 5.3 µM.

Regarding `O=C1c2ccccc2-c2nnc(-c3cc(C(F)(F)F)cc(C(F)(F)F)c3)cc21`, the IC50 is 1 µM in assay [1] and above 2 µM in assay [2].

Turning to `O=C1c2ccccc2-c2nnc(-c3ccco3)cc21`, the IC50 in assay [1] is above 50 µM.

On to `O=C1c2ccccc2-c2nnc(-c3ccccc3F)cc21`, for which the figures for the half-inhibitory concentration (IC50) in assay [1] and in assay [2] were above 20 µM and 18.1 µM, respectively.

Regarding `O=C1c2ccccc2-c2nnc(Cc3ccccc3)cc21`, the IC50 in assay [1] worked out at 100 µM.

Turning to `Cc1c(-c2ccccc2)nnc2c1C(=O)c1ccccc1-2`, the IC50 in assay [1] was 100 µM; in assay [2], above 100 µM.

On to `CC(=O)Nc1ccc(-c2cc3c(nn2)-c2ccccc2C3=O)cc1`, for which the IC50 in assay [1] and in assay [2] was above 10 µM throughout.

Regarding `O=C(O)c1ccc(-c2cc3c(nn2)-c2ccccc2C3=O)cc1`, the IC50 in assay [1] and in assay [2] was 100 µM throughout.

Regarding `N#Cc1ccc(-c2cc3c(nn2)-c2ccccc2C3=O)cc1`, in assay [1], 25 µM corresponded to half-maximal inhibition (IC50).

In assay [1], `O=C1c2ccccc2-c2nnc(-c3ccc(Cl)cc3)cc21` showed an IC50 above 5 µM.

With `O=C1c2ccccc2-c2nnc(-c3ccccc3[N+](=O)[O-])cc21`, the midpoint of inhibition in assay [1], the IC50, lay at 100 µM.

In turn, `O=C1c2ccccc2-c2nnc(-c3cccc(C(F)(F)F)c3)cc21` yielded an IC50 in assay [1] above 5 µM.

As to `COc1cc(-c2cc3c(nn2)-c2ccccc2C3=O)ccc1O`, the IC50 in assay [1] and in assay [2] was 10 µM in each case.

Turning to `O=C1c2ccccc2-c2nnc(-c3ccc(F)cc3)cc21`, the midpoint of inhibition in assay [1], the IC50, lay at 30.6 µM.

Turning to `O=C1c2cc(O)ccc2-c2nnc(-c3cccc(C(F)(F)F)c3)cc21`, the IC50 was found to be 5 µM in assay [1] and 5.1 µM in assay [2].

On to `O=C1c2ccccc2-c2nnc(C(F)(F)F)cc21`, for which the IC50 in assay [1] is 25 µM; in assay [2] it was above 25 µM.

Regarding `O=C1c2ccccc2-c2nnc(-c3ccc(O)cc3)cc21`, the IC50 in assay [1] is above 50 µM.

For the compound `O=C1c2ccccc2-c2nnc3c(c21)CCc1ccccc1-3`, the IC50 in assay [1] and in assay [2] was 50 µM each time.

As for `O=C1c2ccccc2-c2nnc3c(c21)-c1ccccc1CC3`, the 50% inhibitory concentration (IC50) in assay [1] and in assay [2] was 50 µM in each case.

As to `O=C1c2ccccc2-c2nnc(-c3ccccn3)cc21`, the IC50 in assay [1] is 25 µM; in assay [2], above 25 µM.

On to `O=C1c2ccccc2-c2nnc(-c3cccnc3)cc21`, for which the IC50 in assay [1] and in assay [2] was above 25 µM throughout.

For the compound `O=C1c2ccccc2-c2nnc(-c3cccc4ccccc34)cc21`, the 50% inhibitory concentration (IC50) is 10 µM in assay [1] and above 5 µM in assay [2].

The compound `CC(=O)c1ccc(-c2cc3c(nn2)-c2ccccc2C3=O)cc1` yielded an IC50 in assay [1] above 10 µM.

Consider `O=C1c2ccccc2-c2nnc(CCc3ccccc3)cc21`, for which the IC50 in assay [1] is 50 µM. This counts as double-digit micromolar.

In the case of `Nc1cccc(-c2cc3c(nn2)-c2ccccc2C3=O)c1`, half-maximal inhibition in assay [1] (IC50) was put at 25.9 µM.

As to `O=C1c2ccccc2-c2nnc(-c3cc(Cl)cc(Cl)c3)cc21`, the IC50 was 1 µM in assay [1] and 0.71 µM in assay [2].

Consider `COc1ccc(-c2cc3c(nn2)-c2ccccc2C3=O)cc1OC`, for which the IC50 in assay [1] and in assay [2] was 1 µM each time.

Compound `Cc1nnc2c(c1-c1ccccc1)C(=O)c1ccccc1-2` returned an IC50 in assay [1] of 50 µM.

Consider `N#Cc1cccc(-c2cc3c(nn2)-c2ccccc2C3=O)c1`, for which the IC50 in assay [1] was above 10 µM.

Consider `O=C1c2ccccc2-c2nnc(-c3cccc(O)c3)cc21`, for which the 50% inhibitory concentration (IC50) was 1 µM in assay [1] and above 1 µM in assay [2].

In turn, `O=C1c2ccccc2-c2nnc(-c3ccc(C(F)(F)F)cc3)cc21` yielded an IC50 in assay [1] of 1 µM.

As for `O=C1c2ccccc2-c2nnc(-c3ccccc3O)cc21`, the IC50 was 1 µM in assay [1] and above 1 µM in assay [2].

`O=C1c2ccccc2-c2nnc(-c3cccc(Br)c3)cc21` registered an IC50 in assay [1] of 1 µM.

`O=C1c2ccccc2-c2nnc(-c3ccc4ccccc4c3)cc21`: the IC50 in assay [1] is 10 µM.

In the case of `O=C1c2ccccc2-c2nnccc21`, the figures for the IC50 in assay [1] and in assay [2] were 97.6 µM and 27.5 µM, respectively.

`O=C1c2ccccc2-c2nnc(-c3cccc([N+](=O)[O-])c3)cc21`: the IC50 is 1 µM in assay [1] and above 0.5 µM in assay [2].
